Source: US20210238170A1, “5,5-Difluoro- and 5-Fluoro-5-Methyl-C-Glycoside Derivatives Useful As Dual SGLT1 / SGLT2 Modulators” (Janssen Pharmaceutica NV, priority 2018, published 2021)
Where two headings read alike, the source gives them in different places.

Legend:
human SGLT2 = target: T1, human SGLT2 (Homo sapiens, UniProt P31639); assay: SGLT2 in vitro assay: Na-dependent 14C-AMG uptake in CHO-K1 cells stably expressing human SGLT2; format: cell-based; settings: for inhibition at 0.3 µM: read-out: SGLT2 % Inh @ 0.3 μM
T1 construct: expressed in transfected cells
T1 sequence (P31639 1-672): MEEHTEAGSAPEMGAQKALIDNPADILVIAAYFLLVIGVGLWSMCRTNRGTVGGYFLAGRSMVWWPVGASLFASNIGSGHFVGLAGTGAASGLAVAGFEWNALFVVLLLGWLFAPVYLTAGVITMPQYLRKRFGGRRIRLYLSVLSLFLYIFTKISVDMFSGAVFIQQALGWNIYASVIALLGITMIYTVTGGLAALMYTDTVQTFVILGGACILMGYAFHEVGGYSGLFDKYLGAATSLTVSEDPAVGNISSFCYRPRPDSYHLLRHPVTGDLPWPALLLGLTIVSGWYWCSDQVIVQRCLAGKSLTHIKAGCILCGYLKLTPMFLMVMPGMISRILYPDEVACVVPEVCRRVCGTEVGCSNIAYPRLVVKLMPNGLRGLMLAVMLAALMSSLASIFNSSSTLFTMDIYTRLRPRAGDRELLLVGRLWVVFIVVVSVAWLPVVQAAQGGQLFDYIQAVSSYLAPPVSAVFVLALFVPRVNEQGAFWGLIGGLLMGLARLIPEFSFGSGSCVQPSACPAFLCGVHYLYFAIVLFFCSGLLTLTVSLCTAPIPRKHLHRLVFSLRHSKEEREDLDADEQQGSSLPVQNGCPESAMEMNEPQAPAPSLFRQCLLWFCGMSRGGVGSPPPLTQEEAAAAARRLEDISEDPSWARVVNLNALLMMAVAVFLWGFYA
Experimental: (§1) Biological Example 1: SGLT1 and SGLT2 In Vitro Assays
(§2) The ability of the compounds of formula (I) of the present invention to treat an SGLT-mediated condition was determined using the following procedures:
(§3) SGLT1 and SGLT2 were cloned in form of cDNA from human small intestine (Genbank M24847), and from human kidney (Genbank M95549), respectively. Subsequently, each full cDNA was subcloned into pcDNA with each construct's integrity verified through follow-on sequencing. To generate CHO-K1 cells that stably express human SGLT1 or human SGLT2, CHO-K1 cells were transfected using DMRIE-C reagent (Life Technologies, Gaithersburg, Md.). Transfected cells were then selected in the presence of 500 μg/ml of the Geneticin (G418 Cellgro Catalog No. 30234-CI)
(§4) Individual clones were then characterized using the following cell-based assay for sodium-dependent glucose transport:
(§5) Inhibition of SGLT1 and SGLT2 activity was assessed in CHO K1 cells stably expressing either human SGLT1 or SGLT2, using the SGLT specific glucose analog methyl-glucopyranoside (Sigma Catalog No. M-9376). Cells were plated (45,000 cells/well) in white wall 96-well plates (COSTAR, Cat #3903) for 24 hours in growth medium, then a final concentration of 10 mM Na-Butyrate (ALDRICH Cat #30341-0) was added. The cells were incubated for 24 hours. On the day of the assay, cells were rinsed and treated with test compounds (at concentrations of 0.001 μM to 10 μM) in assay buffer (50 mM HEPES, 20 mM Tris base, 5 mM KCl, 1 mM MgCl2, 1 mM CaCl2 and 137 mM NaCl, pH 7.4) for 10 minutes. Cells were then incubated with ^14C-a-methyl-d-glucopyranoside (AMG, Amersham Catalog No. CFB 76), using 0.07 μCi per well in 500 µM AMG final concentration. The cells were incubated for 2 hours at 37° C. with 5% CO2 and washed two times with ice-cold Phosphate Buffer Solution (CELLGRO Catalog No. 21030-CV). The cells were then solubilized by adding 60 μl of MICROSCINT™ 20 and the Na-dependent ^14C-AMG uptake was quantified by measuring radioactivity. Plates were counted in a TopCount (Packard, Meriden, Conn.)
(§6) Representative compounds of the present invention were tested according to the procedures as described in Biological Example 1 and 2 above, with results as listed in Table 5, below. Results are reported as the %-inhibition or IC50 value. Variability for the functional assay was typically within 20%.

human SGLT1 = target: T2, human SGLT1 (Homo sapiens, UniProt P13866); assay: SGLT1 in vitro assay: Na-dependent 14C-AMG uptake in CHO-K1 cells stably expressing human SGLT1; format: cell-based; settings: for inhibition at 0.3 µM: read-out: SGLT1 % Inh @ 0.3 μM
T2 construct: expressed in transfected cells
T2 sequence (P13866 1-664): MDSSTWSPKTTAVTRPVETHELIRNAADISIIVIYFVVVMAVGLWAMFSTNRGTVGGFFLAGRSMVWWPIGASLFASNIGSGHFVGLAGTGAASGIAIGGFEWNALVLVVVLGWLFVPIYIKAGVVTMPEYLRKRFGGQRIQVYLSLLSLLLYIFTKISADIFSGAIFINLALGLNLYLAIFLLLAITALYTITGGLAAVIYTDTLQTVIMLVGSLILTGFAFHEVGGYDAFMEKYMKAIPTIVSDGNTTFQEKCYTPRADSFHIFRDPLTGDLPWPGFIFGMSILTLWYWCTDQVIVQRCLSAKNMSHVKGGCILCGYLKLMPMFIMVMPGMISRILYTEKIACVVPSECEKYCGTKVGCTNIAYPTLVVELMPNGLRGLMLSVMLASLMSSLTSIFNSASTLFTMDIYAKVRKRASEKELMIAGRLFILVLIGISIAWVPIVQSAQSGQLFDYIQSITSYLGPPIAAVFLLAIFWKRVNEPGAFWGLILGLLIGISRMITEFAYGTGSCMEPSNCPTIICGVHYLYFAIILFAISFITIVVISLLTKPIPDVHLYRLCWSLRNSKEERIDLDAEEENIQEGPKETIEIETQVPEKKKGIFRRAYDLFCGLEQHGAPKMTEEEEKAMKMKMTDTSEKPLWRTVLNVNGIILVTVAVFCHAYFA
Experimental: as §1, §2, §3, §4, §5, §6

[1] = @ 0.3 μM, CHO-K1 cells stably expressing human SGLT2, 14C-AMG uptake
[2] = @ 0.3 μM, CHO-K1 cells stably expressing human SGLT1, 14C-AMG uptake
[3] = 0.3 μM, CHO-K1 cells expressing human SGLT2
[4] = CHO-K1 cells expressing human SGLT2, 14C-AMG uptake
[5] = 0.3 μM, CHO-K1 cells expressing human SGLT1
[6] = CHO-K1 cells expressing human SGLT1, 14C-AMG uptake
[7] = CHO-K1 cells stably expressing human SGLT2, 14C-AMG uptake, compounds of formula (I) where R0 is fluoro
[8] = CHO-K1 cells stably expressing human SGLT1, 14C-AMG uptake, compounds of formula (I) where R0 is fluoro

CCc1ccc(Cc2cc(C3OC(CO)C(F)(F)C(O)C3O)cc3c2OCC3CO)cc1 (mixture of isomers) [Compound 61]
SGLT2 % Inh @ 0.3 μM (human SGLT2; [1]): 58.0%
SGLT1 % Inh @ 0.3 μM (human SGLT1; [2]): 32.2%

Cc1cc(O)c([C@@H]2O[C@H](CO)[C@@](C)(F)[C@H](O)[C@H]2O)cc1Cc1ccc(OCF)cc1 (stereo in doubt) [Compound 23, (2S,3R,4R,5S,6R)-5-fluoro-2-(5-(4-(fluoromethoxy)benzyl)-2-hydroxy-4-methylphenyl)-6-(hydroxymethyl)-5-methyl-tetrahydro-2H-pyran-3,4-diol]
inhibition at 0.3 µM (human SGLT2; [3]): 88%
IC50 (human SGLT2; [4]): 2.8 nM
inhibition at 0.3 µM (human SGLT1; [5]): 54%
IC50 (human SGLT1; [6]): 319 nM

Cc1cc(O)c([C@@H]2O[C@H](CO)[C@@](C)(F)[C@H](O)[C@H]2O)cc1Cc1cc2ccccc2s1 [Compound 1]
IC50 (human SGLT2; [4]): 19.6 nM
inhibition at 0.3 µM (human SGLT1; [5]): 57.6%
IC50 (human SGLT1; [6]): 198 nM

COc1cc(O)c([C@@H]2O[C@H](CO)[C@@](C)(F)[C@H](O)[C@H]2O)cc1Cc1ccc2c(c1)CCCO2 [Compound 2, (2S,3R,4R,5S,6R)-2-[5-(chroman-6-ylmethyl)-2-hydroxy-4-methoxy-phenyl]-5-fluoro-6-(hydroxymethyl)-5-methyl-tetrahydropyran-3,4-diol]
inhibition at 0.3 µM (human SGLT2; [3]): 67.4%
inhibition at 0.3 µM (human SGLT1; [5]): 31.1%

COc1cc(OC)c(C2OC(CO)C(C)(F)C(O)C2O)cc1Cc1ccc2c(c1)CCCO2 (centres unmarked) [Compound 4]
SGLT2 % Inh @ 0.3 μM (human SGLT2; [3]): 73.4%
SGLT1 % Inh @ 0.3 μM (human SGLT1; [5]): 0.9%

COc1cc(OC)c([C@@H]2O[C@H](CO)[C@@](C)(F)[C@H](O)[C@H]2O)cc1Cc1ccc2c(c1)OCCO2 [Compound 9, (2S,3R,4R,5S,6R)-2-[5-(2,3-dihydro-1,4-benzodioxin-6-ylmethyl)-2,4-dimethoxy-phenyl]-5-fluoro-6-(hydroxymethyl)-5-methyl-tetrahydropyran-3,4-diol]
inhibition at 0.3 µM (human SGLT2; [3]): 58.7%
inhibition at 0.3 µM (human SGLT1; [5]): 25.3%

C[C@]1(F)[C@H](O)[C@@H](O)[C@H](c2cc(Cc3cc4ccccc4s3)c(Cl)cc2O)O[C@@H]1CO [Compound 10, (2S,3R,4R,5S,6R)-2-[5-(benzothiophen-2-ylmethyl)-4-chloro-2-hydroxy-phenyl]-5-fluoro-6-(hydroxymethyl)-5-methyl-tetrahydropyran-3,4-diol]
inhibition at 0.3 µM (human SGLT2; [3]): 87.8%
IC50 (human SGLT2; [4]): 10.2 nM
inhibition at 0.3 µM (human SGLT1; [5]): 41.7%
IC50 (human SGLT1; [6]): 287 nM

CCc1cc(O)c([C@@H]2O[C@H](CO)[C@@](C)(F)[C@H](O)[C@H]2O)cc1Cc1ccc(OC)cc1 [Compound 16, (2S,3R,4R,5S,6R)-2-[4-ethyl-2-hydroxy-5-[(4-methoxyphenyl)methyl]phenyl]-5-fluoro-6-(hydroxymethyl)-5-methyl-tetrahydropyran-3,4-diol]
inhibition at 0.3 µM (human SGLT2; [3]): 85.5%
IC50 (human SGLT2; [4]): 2 nM
inhibition at 0.3 µM (human SGLT1; [5]): 53%
IC50 (human SGLT1; [6]): 151 nM

C[C@]1(F)[C@H](O)[C@@H](O)[C@H](c2cc3c(c(Cc4ccc5c(c4)OCCO5)c2)OCC3)O[C@@H]1CO [Compound 19]
SGLT2 % Inh @ 0.3 μM (human SGLT2; [3]): 73.5%
SGLT1 % Inh @ 0.3 μM (human SGLT1; [5]): 9.3%

COc1cc(C)c(Cc2ccc(OCF)cc2)cc1[C@@H]1O[C@H](CO)[C@@](C)(F)[C@H](O)[C@H]1O [Compound 24]
SGLT2 % Inh @ 0.3 μM (human SGLT2; [3]): 77.1%
SGLT1 % Inh @ 0.3 μM (human SGLT1; [5]): 29.6%

CCc1cc(O)c([C@@H]2O[C@H](CO)C(F)(F)[C@H](O)[C@H]2O)cc1Cc1cc2ccccc2s1 [Compound 26, (2S,3R,4R,6R)-2-[5-(benzothiophen-2-ylmethyl)-4-ethyl-2-hydroxy-phenyl]-5,5-difluoro-6-(hydroxymethyl)tetrahydropyran-3,4-diol]
IC50 (human SGLT2; [7]): 32.9 nM
IC50 (human SGLT1; [8]): 44 nM

OC[C@H]1O[C@@H](c2cc(Cc3cc4ccccc4s3)c(Cl)cc2O)[C@H](O)[C@@H](O)C1(F)F [Compound 27, (2S,3R,4R,6R)-2-[5-(benzothiophen-2-ylmethyl)-4-chloro-2-hydroxy-phenyl]-5,5-difluoro-6-(hydroxymethyl)tetrahydropyran-3,4-diol]
IC50 (human SGLT2; [7]): 4.2 nM
inhibition at 0.3 µM (human SGLT1; [2]): 71.3%
IC50 (human SGLT1; [8]): 93 nM

COc1cc(O)c([C@@H]2O[C@H](CO)C(F)(F)[C@H](O)[C@H]2O)cc1Cc1cc2ccccc2s1 [Compound 31, (2S,3R,4R,6R)-2-[5-(benzothiophen-2-ylmethyl)-2-hydroxy-4-methoxy-phenyl]-5,5-difluoro-6-(hydroxymethyl)tetrahydropyran-3,4-diol]
IC50 (human SGLT2; [7]): 24.1 nM
IC50 (human SGLT1; [8]): 165 nM

COc1cc(C)c(Cc2cc3ccccc3s2)cc1[C@@H]1O[C@H](CO)C(F)(F)[C@H](O)[C@H]1O [Compound 35, (2S,3R,4R,6R)-2-[5-(benzothiophen-2-ylmethyl)-2-methoxy-4-methyl-phenyl]-5,5-difluoro-6-(hydroxymethyl)tetrahydropyran-3,4-diol]
inhibition at 0.3 µM (human SGLT2; [1]): 76.3%
inhibition at 0.3 µM (human SGLT1; [2]): 39.2%

COc1cc(Cl)c(Cc2cc3ccccc3s2)cc1[C@@H]1O[C@H](CO)C(F)(F)[C@H](O)[C@H]1O [Compound 36, (2S,3R,4R,6R)-2-[5-(benzothiophen-2-ylmethyl)-4-chloro-2-methoxy-phenyl]-5,5-difluoro-6-(hydroxymethyl)tetrahydropyran-3,4-diol]
inhibition at 0.3 µM (human SGLT2; [1]): 48.6%
IC50 (human SGLT2; [7]): 4.3 nM
inhibition at 0.3 µM (human SGLT1; [2]): 56.6%
IC50 (human SGLT1; [8]): 221 nM

CCc1ccc(Cc2cc([C@@H]3O[C@H](CO)C(F)(F)[C@H](O)[C@H]3O)c(OC)c3c2OCC3)cc1 [Compound 38]
SGLT2 % Inh @ 0.3 μM (human SGLT2; [1]): 65.9%
SGLT1 % Inh @ 0.3 μM (human SGLT1; [2]): 47.4%

COCCOc1cc(C)c(Cc2cc3ccccc3s2)cc1[C@@H]1O[C@H](CO)C(F)(F)[C@H](O)[C@H]1O [Compound 39]
SGLT2 % Inh @ 0.3 μM (human SGLT2; [1]): 76.4%
SGLT1 % Inh @ 0.3 μM (human SGLT1; [2]): 31.8%
